Measurements from ChEMBL document CHEMBL5725243, “Cyclopentylbenzamide derivatives and their use for the treatment of psychotic and cognitive disorders” (2016).

Assays:
[1] = biological target: T1, Orexin/Hypocretin receptor type 1 (Homo sapiens, UniProt O43613); assay: (§1) Fluorescent Imaging Plate Reader (FLIPR) Assay: Orexin antagonist activity was determined by measuring changes in intracellular calcium levels using a Ca2+ sensitive fluorescent dye. The changes in fluorescent signal were monitored by Fluorescent Imaging Plate Reader (FLIPR) technology available from Molecular Devices, LLC, U.S.A. Orexin mediated increases in intracellular Ca2+ concentration were readily detected upon activation with orexin-A. Twenty-four hours prior to the assay, RBL-2H3 cells stably expressing either human orexin receptor 1 or human orexin receptor 2 were seeded in cell culture medium in black, clear-bottom 384-well plates (commercially available from Corning Inc., U.S.A.) and grown overnight at 37° C., 5% CO2. On the day of the assay, cell culture media was removed and cells were loaded with Calcium 5 Dye (commercially sold by Molecular Devices, LLC, U.S.A.) for 1 hour at 37° C., 5% CO2. Test compounds (at 10 point half log concentration response curves from 10 uM) were added to cells for 15 minutes prior to the addition of orexin-A to all wells, to achieve a final concentration that produces approximately an 80% maximal response. The IC50 values were determined from ten point concentration response curves. Curves were generated using the average of two wells for each data point.; format: cell-based
T1 sequence (O43613 whole entry): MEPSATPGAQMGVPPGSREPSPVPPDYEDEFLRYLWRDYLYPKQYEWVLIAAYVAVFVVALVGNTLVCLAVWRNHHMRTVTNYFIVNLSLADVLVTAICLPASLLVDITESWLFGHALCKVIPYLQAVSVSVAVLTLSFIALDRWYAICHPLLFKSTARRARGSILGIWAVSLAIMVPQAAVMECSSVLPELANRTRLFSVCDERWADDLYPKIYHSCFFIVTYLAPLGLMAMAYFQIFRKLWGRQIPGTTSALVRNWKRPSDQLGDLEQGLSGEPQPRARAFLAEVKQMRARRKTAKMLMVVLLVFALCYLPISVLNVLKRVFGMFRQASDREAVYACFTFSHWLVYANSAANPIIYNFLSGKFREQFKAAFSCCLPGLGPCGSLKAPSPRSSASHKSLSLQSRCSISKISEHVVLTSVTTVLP

Orexin receptor type 2 = biological target: T2, Orexin receptor type 2 (Homo sapiens, UniProt O43614); assay: as §1; format: cell-based
T2 sequence (O43614 whole entry): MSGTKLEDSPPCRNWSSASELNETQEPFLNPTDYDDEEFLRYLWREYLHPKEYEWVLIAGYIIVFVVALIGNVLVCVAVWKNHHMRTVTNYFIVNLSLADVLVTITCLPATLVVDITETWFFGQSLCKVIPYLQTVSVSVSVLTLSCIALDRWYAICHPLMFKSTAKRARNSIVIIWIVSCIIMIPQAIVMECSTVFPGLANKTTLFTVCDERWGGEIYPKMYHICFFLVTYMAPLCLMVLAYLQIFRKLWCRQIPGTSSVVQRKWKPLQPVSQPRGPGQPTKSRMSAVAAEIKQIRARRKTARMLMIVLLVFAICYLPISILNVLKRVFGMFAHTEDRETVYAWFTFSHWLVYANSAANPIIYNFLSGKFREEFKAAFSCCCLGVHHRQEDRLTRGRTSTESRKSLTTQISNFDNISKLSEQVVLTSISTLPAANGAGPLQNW

Row | IC50 [1] [nM] | IC50 (Orexin receptor type 2) [nM] | Compound
1 | 24 | > 10000 | Cc1ccc(-n2nccn2)c(C(=O)N[C@H]2CCC[C@@H]2Nc2ncc3ccccc3n2)c1
2 | 130 | 1200 | CCOc1cccc(OCC)c1C(=O)N[C@@H]1CCC[C@@H]1Nc1nc2ccccc2o1
3 | 220 | 1400 | COc1cccc(OC)c1C(=O)N[C@@H]1COC[C@@H]1Nc1nc2ccc(Cl)cc2s1 (relative stereo)
